From the OligoGym collection
Oligonucleotides are written 5' to 3', each unit as a sugar letter and its base; * is a phosphorothioate linkage, no mark a phosphodiester; rarer units and linkages stand in square brackets, end groups in braces. Plain capitals give the bases only. d = 2'-deoxy (DNA); r = 2'-OH (RNA)
Further: test concentration or dose not given here.

These substances were tested against P2rx2 (rat) (assay: reporter assay of Huesken 2005). Conditions: siRNA.
Work on “sense rCrArGrUrGrUrArGrUrCrArGrCrArUrCrArUrCdTdT / antisense rGrArUrGrArUrGrCrUrGrArCrUrArCrArCrUrGdCdC” yielded a normalised inhibition (eCFP-eYFP dual reporter) of 78.4%.
Work on “sense rGrCrCrArCrCrCrArGrCrCrCrUrCrCrArUrCrAdTdT / antisense rUrGrArUrGrGrArGrGrGrCrUrGrGrGrUrGrGrCdTdG” yielded a normalised inhibition (eCFP-eYFP dual reporter) of 60.8%.
“sense rCrArUrUrGrUrUrGrArGrArArGrGrCrArGrGrAdTdT / antisense rUrCrCrUrGrCrCrUrUrCrUrCrArArCrArArUrGdAdA” gave a normalised inhibition (eCFP-eYFP dual reporter) of 61.4%.
Substance “sense rUrCrGrArUrGrUrUrArUrCrGrUrGrCrArUrGrGdTdT / antisense rCrCrArUrGrCrArCrGrArUrArArCrArUrCrGrAdTdT” has a normalised inhibition (eCFP-eYFP dual reporter) of 57.4%.
“sense rGrGrArGrArGrArArCrUrUrCrArCrArGrArArCdTdT / antisense rGrUrUrCrUrGrUrGrArArGrUrUrCrUrCrUrCrCdTdG” showed a normalised inhibition (eCFP-eYFP dual reporter) of 61.7%.
Work on “sense rGrCrUrCrUrArCrCrUrGrCrCrArUrUrCrArGrAdTdT / antisense rUrCrUrGrArArUrGrGrCrArGrGrUrArGrArGrCdTdG” yielded a normalised inhibition (eCFP-eYFP dual reporter) of 79.4%.
“sense rGrCrCrCrGrGrUrGrGrArGrGrArUrGrGrArArCdTdT / antisense rGrUrUrCrCrArUrCrCrUrCrCrArCrCrGrGrGrCdAdC” showed a normalised inhibition (eCFP-eYFP dual reporter) of 48.4%.
“sense rArCrUrArCrCrArCrCrArCrUrCrGrArArCrUrCdTdT / antisense rGrArGrUrUrCrGrArGrUrGrGrUrGrGrUrArGrUdGdC” was tested, and the normalised inhibition (eCFP-eYFP dual reporter) was 43.6%.
“sense rUrGrArCrCrCrUrUrGrCrCrCrUrUrGrUrCrUrUdTdT / antisense rArArGrArCrArArGrGrGrCrArArGrGrGrUrCrAdCdA” was tested, and the normalised inhibition (eCFP-eYFP dual reporter) was 53.9%.
For “sense rCrUrGrGrArArCrUrGrUrGrArCrCrUrGrGrArCdTdT / antisense rGrUrCrCrArGrGrUrCrArCrArGrUrUrCrCrArGdTdT”, the normalised inhibition (eCFP-eYFP dual reporter) was 70.3%.
For “sense rCrUrUrGrGrCrCrArGrCrArUrArUrGrGrGrArCdTdT / antisense rGrUrCrCrCrArUrArUrGrCrUrGrGrCrCrArArGdTdG”, the normalised inhibition (eCFP-eYFP dual reporter) was 52%.
With “sense rGrCrUrArCrCrArGrGrArCrArGrCrGrArGrArCdTdT / antisense rGrUrCrUrCrGrCrUrGrUrCrCrUrGrGrUrArGrCdTdT” the normalised inhibition (eCFP-eYFP dual reporter) was 60.5%.
For “sense rCrArUrCrUrCrUrGrCrUrCrUrGrArCrUrGrArGdTdT / antisense rCrUrCrArGrUrCrArGrArGrCrArGrArGrArUrGdGdA”, the normalised inhibition (eCFP-eYFP dual reporter) was 42.7%.
“sense rArCrArGrCrUrCrUrArCrCrUrGrCrCrArUrUrCdTdT / antisense rGrArArUrGrGrCrArGrGrUrArGrArGrCrUrGrUdGdA” showed a normalised inhibition (eCFP-eYFP dual reporter) of 42.3%.
For “sense rUrCrArGrCrCrArCrCrCrArGrCrCrCrUrCrCrAdTdT / antisense rUrGrGrArGrGrGrCrUrGrGrGrUrGrGrCrUrGrAdTdC”, the normalised inhibition (eCFP-eYFP dual reporter) was 51.2%.
“sense rArGrUrCrArUrCrArUrCrArArCrUrGrGrArArCdTdT / antisense rGrUrUrCrCrArGrUrUrGrArUrGrArUrGrArCrUdCdC” showed a normalised inhibition (eCFP-eYFP dual reporter) of 33.7%.
“sense rCrUrGrGrArCrArUrGrCrArArGrGrCrArArUrGdTdT / antisense rCrArUrUrGrCrCrUrUrGrCrArUrGrUrCrCrArGdCdT” showed a normalised inhibition (eCFP-eYFP dual reporter) of 55.2%.
“sense rArCrGrUrCrUrUrCrArUrCrGrUrGrCrArGrArAdTdT / antisense rUrUrCrUrGrCrArCrGrArUrGrArArGrArCrGrUdAdC” gave a normalised inhibition (eCFP-eYFP dual reporter) of 85.2%.
“sense rArArGrCrCrUrArUrGrGrGrArUrUrCrGrArArUdTdT / antisense rArUrUrCrGrArArUrCrCrCrArUrArGrGrCrUrUdTdG” was tested, and the normalised inhibition (eCFP-eYFP dual reporter) was 76%.
Work on “sense rCrUrCrCrArUrCrGrGrGrGrUrGrGrGrCrUrCrCdTdT / antisense rGrGrArGrCrCrCrArCrCrCrCrGrArUrGrGrArGdGdT” yielded a normalised inhibition (eCFP-eYFP dual reporter) of 38.5%.
